From PubChem BioAssay (NCI)
Where “and” joins values, the source holds several entries; their conditions need not be identical. Equal values may be shown once.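 A five-concentration, 48-hour dose response in 96-well plates underlies each endpoint, interpolated linearly between surrounding concentrations. The concentration for 50% growth inhibition is given as GI50. TGI denotes the concentration required for complete inhibition of growth.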

Experiments:
Experiment in all cases: NCI tumour cell line growth inhibition, 48 h
[1] = tested on: SNB-75 CNS
[2] = tested on: CCRF-CEM leukemia
[3] = tested on: SR leukemia
[4] = tested on: TK-10 renal
[5] = tested on: SK-MEL-28 melanoma
[6] = tested on: SNB-78 CNS
[7] = tested on: OVCAR-3 ovarian
[8] = tested on: NCI-H226 lung
[9] = tested on: DMS 273 small cell lung
[10] = tested on: OVCAR-8 ovarian

| SMILES | TGI [1] [µM] | TGI [2] [µM] | TGI [3] [µM] | TGI [4] [µM] | TGI [5] [µM] | TGI [6] [µM] | TGI [7] [µM] | TGI [8] [µM] | TGI [9] [µM] | TGI [10] [µM] | GI50 [1] [µM] | GI50 [2] [µM] | GI50 [3] [µM] | GI50 [4] [µM] | GI50 [5] [µM] | GI50 [6] | GI50 [7] [µM] | GI50 [8] [µM] | GI50 [9] [µM] | GI50 [10] [µM] |
| --- | --- | --- | --- | --- | --- | --- | --- | --- | --- | --- | --- | --- | --- | --- | --- | --- | --- | --- | --- | --- |
| O=C(NC1C=CCC2C(=O)N(c3ccccc3)C(=O)C12)OCc1ccccc1 (stereo not given) | > 100 | > 100 | > 100 | > 100 | > 100 | > 100 | > 100 | > 100 | > 100 | > 100 |  |  |  |  |  |  |  |  |  |  |
| Cc1[cH-]c(=O)n(-c2ccccc2)n1.[Au+].[Au].c1ccc([PH+](c2ccccc2)c2ccccc2)cc1.c1ccc([PH+](c2ccccc2)c2ccccc2)cc1 | 39.3 | > 100 | > 100 | 31.9 | 14.9 | > 100 | 39.1 | 77.8 | 30.7 | 41.5 | 14.7 | 22.8 | 26.4 | 16.6 | 2.52 | 3.43 µM and 14.6 µM | 16.7 | 26.7 | 10.3 | 14.6 |
| N#CCCC[Si]12OCCN(CCO1)CCO2 | > 100 | > 100 | > 100 | > 100 | > 100 | > 100 | > 100 | > 100 | > 100 | > 100 |  |  |  |  |  |  |  |  |  |  |
| O=C(/C=C/c1c(O)ccc2ccccc12)c1ccc([N+](=O)[O-])cc1 | > 100 | > 75.8 | > 100 | > 96.4 | > 67.6 | 66.4 | 39.8 | > 100 | > 100 | > 61.6 |  |  |  |  |  |  |  |  |  |  |
